# Data reported in BindingDB's records for patent US20250313563 (The Broad Institute, 2025).
# Several values for one entry are separate records, joined by “and”; a condition that tells them apart may be missing. Identical values can stand only once.
# Assays:
# [1] = target: Glycogen synthase kinase-3 alpha (Homo sapiens, UniProt P49840); test: TR-FRET Assay
# Procedure, shortened: (§1)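 TR-FRET readout: streptavidin-d2 (40 nM in added detection mix) plus Tb-anti-pSer641 Ab (2 nM in mix). Steps were 30 min compound preincubation, kinase reaction, then EDTA stop.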
# [2] = target: Glycogen synthase kinase-3 beta (Homo sapiens, UniProt P49841); test: TR-FRET Assay
# Chain of Glycogen synthase kinase-3 beta (P49841 whole entry): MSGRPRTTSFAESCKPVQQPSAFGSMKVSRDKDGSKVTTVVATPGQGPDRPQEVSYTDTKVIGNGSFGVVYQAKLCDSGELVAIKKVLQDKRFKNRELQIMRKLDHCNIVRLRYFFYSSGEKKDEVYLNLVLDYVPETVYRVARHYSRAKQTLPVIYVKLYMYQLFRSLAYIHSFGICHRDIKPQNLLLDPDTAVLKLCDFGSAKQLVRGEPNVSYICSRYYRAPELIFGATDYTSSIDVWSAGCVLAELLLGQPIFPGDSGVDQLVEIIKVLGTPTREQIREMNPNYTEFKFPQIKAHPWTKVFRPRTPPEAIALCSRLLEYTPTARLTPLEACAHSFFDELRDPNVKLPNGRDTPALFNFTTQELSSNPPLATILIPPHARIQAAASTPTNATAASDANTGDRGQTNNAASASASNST
# Procedure, shortened: as §1
# Chain of Glycogen synthase kinase-3 alpha (P49840 whole entry): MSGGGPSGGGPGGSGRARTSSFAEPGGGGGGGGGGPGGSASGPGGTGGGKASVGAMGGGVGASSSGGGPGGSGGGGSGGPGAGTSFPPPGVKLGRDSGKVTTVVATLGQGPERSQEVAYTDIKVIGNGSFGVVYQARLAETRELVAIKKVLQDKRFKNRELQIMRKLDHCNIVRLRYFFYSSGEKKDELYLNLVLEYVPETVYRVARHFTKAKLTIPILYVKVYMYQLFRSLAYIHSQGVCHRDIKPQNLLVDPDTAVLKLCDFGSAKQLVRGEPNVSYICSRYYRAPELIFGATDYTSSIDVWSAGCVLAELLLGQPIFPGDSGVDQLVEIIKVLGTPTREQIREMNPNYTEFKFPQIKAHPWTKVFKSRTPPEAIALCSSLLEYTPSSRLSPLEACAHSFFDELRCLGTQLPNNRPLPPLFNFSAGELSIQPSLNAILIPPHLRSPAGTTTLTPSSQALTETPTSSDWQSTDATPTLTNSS
Compound,IC50 [1],IC50 [2]
"CC[C@@]1(c2cccc(-c3c(F)cncc3F)c2)C2=CN=NC2NC2=C1C(=O)NC(C)(C)C2 (stereo partly specified) [US20250313563, Compound 948525]",< 100 nM and 100 to 1000 nM,< 100 nM and 1000 to 5000 nM
"CC(C)(C)CC1=C2C(N=N1)NC1=C(C(=O)CC(C)(C)C1)[C@@]21CCc2ccc(F)cc21 (stereo partly specified) [US20250313563, Compound 789505]",100 to 1000 nM,< 100 nM
"CCC1(c2cccc(C(F)(F)F)c2)C2=C(N=NC2)NC2=C1C(=O)N(Cc1ccccc1)C2 (stereo unspecified) [US20250313563, Compound 917159]",< 100 nM,100 to 1000 nM
"C[C@H]1COCC[C@]12C1=CN=NC1NC1=C2C(=O)CC(C)(C)C1 (stereo partly specified) [US20250313563, Compound 924309]",1000 to 5000 nM,> 5000 nM
"CC[C@]1(c2cccc(C(F)(F)F)c2)C2=CN=NC2NC2=C1C(=O)CC1(CCCC1)C2 (stereo partly specified) [US20250313563, Compound 801311]",< 100 nM,< 100 nM and 100 to 1000 nM
"CC[C@@]1(c2cccc(-c3ccnc(N4CCOCC4)c3)c2)C2=CN=NC2NC2=C1C(=O)NC(C)(C)C2 (stereo partly specified) [US20250313563, Compound 948825]",100 to 1000 nM,1000 to 5000 nM
"Cc1csc(S(=O)(=O)N2CCC3(CC2)C2=C(N=NC2)NC2=C3C(=O)CC(C)(C)C2)n1 [US20250313563, Compound 947897]",< 100 nM,< 100 nM
"Cn1nccc1S(=O)(=O)N1CCC2(CC1)C1=C(N=NC1)NC1=C2C(=O)CC(C)(C)C1 [US20250313563, Compound 932649]",< 100 nM,< 100 nM
"CC[C@]1(c2ccccc2)C2=CN=NC2NC2=C1C(=O)C[C@]1(CCN(C)C1=O)C2 (stereo partly specified) [US20250313563, Compound 949760]",100 to 1000 nM,> 5000 nM
"CCC1(c2cccc(C(F)(F)F)c2)C2=CN=NC2NC2=C1C(=O)NCC2 (stereo unspecified) [US20250313563, Compound 870263]",100 to 1000 nM,> 5000 nM
"CC[C@@]1(c2cccc(N3CCCCC3)c2)C2=C(CC(C)(C)CC2=O)NC2N=NC(C)=C21 (stereo partly specified) [US20250313563, Compound 884116]",< 100 nM and 100 to 1000 nM,< 100 nM and 100 to 1000 nM
"Cc1cnccc1[C@H]1CC[C@@]2(CC1)C1=C(N=NC1)NC1=C2C(=O)CC(C)(C)C1 [US20250313563, Compound 949319]",< 100 nM,< 100 nM
"CCC1(c2cccc(-c3cnc(C)n3C)c2)C2=CN=NC2NC2=C1C(=O)CC(C)(C)C2 (stereo unspecified) [US20250313563, Compound 943531]",< 100 nM and 100 to 1000 nM,100 to 1000 nM and > 5000 nM
"CC1(C)CC(=O)C2=C(C1)NC1=C(CN=N1)C21CCCCC1=O (stereo unspecified) [US20250313563, Compound 912105]",> 5000 nM,> 5000 nM
"CC1(C)CC(=O)C2=C(C1)NC1N=NC(CCC(F)(F)F)=C1C2(C)c1ccccc1 (stereo unspecified) [US20250313563, Compound 828845]",100 to 1000 nM,100 to 1000 nM
"CC[C@]1(c2cccc(N3CCCC[C@H]3C)c2)C2=CN=NC2NC2=C1C(=O)CC(C)(C)C2 (stereo partly specified) [US20250313563, Compound 917209]",< 100 nM,100 to 1000 nM
"CCC1(c2cccc(N3C[C@H](C)C[C@H](C)C3)c2)C2=CN=NC2NC2=C1C(=O)CC(C)(C)C2 (stereo partly specified) [US20250313563, Compound 885237]",100 to 1000 nM,1000 to 5000 nM
"CC[C@@]1(c2cccc(-c3cnn(C)c3)c2)C2=C(CC(C)(C)NC2=O)NC2N=NC(C(F)(F)F)=C21 (stereo partly specified) [US20250313563, Compound 947877]",< 100 nM,< 100 nM and 100 to 1000 nM
"CCC1(c2cccc(-c3cnn(C)c3)c2)C2=C(CC(C)(C)NC2=O)NC2N=NC(C(F)F)=C21 (stereo unspecified) [US20250313563, Compound 949171]",< 100 nM,< 100 nM and 1000 to 5000 nM
"CC1(C)CC(=O)C2=C(C1)NC1N=NC=C1C21CCCS(=O)(=O)CC1 (stereo unspecified) [US20250313563, Compound 927343]",< 100 nM,100 to 1000 nM
"CCC1(c2cccc(Oc3ncccn3)c2)C2=C(CC(C)(C)NC2=O)NC2N=NC(F)=C21 (stereo unspecified) [US20250313563, Compound 950615]",< 100 nM,100 to 1000 nM
"CC[C@@]1(c2cccc(-c3ccncc3C)c2)C2=CN=NC2NC2=C1C(=O)NC1(CCC1)C2 (stereo partly specified) [US20250313563, Compound 948512]",< 100 nM and 100 to 1000 nM,< 100 nM and 1000 to 5000 nM
"CC[C@]1(c2cccc(N(C)c3cccc(C)n3)c2)C2=CN=NC2NC2=C1C(=O)CC(C)(C)C2 (stereo partly specified) [US20250313563, Compound 932644]",> 5000 nM,> 5000 nM
"CC1(C)CC(=O)C2=C(C1)NC1=C(CN=N1)C2(C)c1cc(C(F)(F)F)ccc1F (stereo unspecified) [US20250313563, Compound 810376]",< 100 nM,100 to 1000 nM
"CCC1(c2cccc(-c3cccnc3)c2)C2=CN=NC2NC2=C1C(=O)CC(C)(C)C2 (stereo unspecified) [US20250313563, Compound 791272]",< 100 nM,100 to 1000 nM
"CC[C@@]1(c2cccc(-c3cnn4c3CCCC4)c2)C2=C(CC(C)(C)CC2=O)NC2N=NC(C)=C21 (stereo partly specified) [US20250313563, Compound 913033]",100 to 1000 nM,1000 to 5000 nM
"COc1ccc(S(=O)(=O)N2CCC3(CC2)C2=C(N=NC2)NC2=C3C(=O)CC(C)(C)C2)cc1C [US20250313563, Compound 945680]",< 100 nM,< 100 nM

Compound,IC50 [1],IC50 [2]
"CCC1(c2cccc(N3CC4CCC3CC4)c2)C2=CN=NC2NC2=C1C(=O)CC(C)(C)C2 (stereo unspecified) [US20250313563, Compound 885120]",< 100 nM,100 to 1000 nM
"CC1(C)CC(=O)C2=C(C1)NC1N=NC(C3(C(F)(F)F)CC3)=C1C21CCc2c(F)cccc21 (stereo unspecified) [US20250313563, Compound 810591]",100 to 1000 nM,100 to 1000 nM
"CCC1(c2cccc(S(=O)(=O)C3CC3)c2)C2=CN=NC2NC2=C1C(=O)NC(C)(C)C2 (stereo unspecified) [US20250313563, Compound 945465]",< 100 nM,< 100 nM
"CC1(C)CC(=O)C2=C(C1)NC1=C(CN=N1)C21CCN(S(=O)(=O)c2cccnc2)CC1 [US20250313563, Compound 947613]",< 100 nM and 100 to 1000 nM,< 100 nM and 1000 to 5000 nM
"CC[C@]1(c2cccc(OC)c2)C2=C(CC(C)(C)CC2=O)NC2N=NC(C(F)(F)F)=C21 (stereo partly specified) [US20250313563, Compound 884118]",100 to 1000 nM,1000 to 5000 nM
"CC1(C)CC(=O)C2=C(C1)NC1=C(CN=N1)C21CN(S(=O)(=O)Cc2ccccc2)C1 [US20250313563, Compound 943543]",< 100 nM,< 100 nM
"CCC1(c2cccc(-c3cc(C)ncc3C)c2)C2=C(CC(C)(C)CC2=O)NC2N=NC(C)=C21 (stereo unspecified) [US20250313563, Compound 883988]",< 100 nM,< 100 nM
"CC[C@]1(c2cccc(N(C)c3ncccn3)c2)C2=CN=NC2NC2=C1C(=O)CC(C)(C)C2 (stereo partly specified) [US20250313563, Compound 911980]",< 100 nM,< 100 nM and 100 to 1000 nM
"CCC1(c2cccc(C(F)(F)F)c2)C2=CN=NC2NC2=C1C(=O)N(c1cccnc1)CC2 (stereo unspecified) [US20250313563, Compound 945637]",< 100 nM,100 to 1000 nM
"CCC1(c2cccc(COC)c2)C2=CN=NC2NC2=C1C(=O)CC(C)(C)C2 (stereo unspecified) [US20250313563, Compound 801323]",< 100 nM,100 to 1000 nM
"CCC1(c2cccc(N(C)c3ccnc(C)c3)c2)C2=CN=NC2NC2=C1C(=O)CC(C)(C)C2 (stereo unspecified) [US20250313563, Compound 917149]",100 to 1000 nM,1000 to 5000 nM
"CC[C@]1(c2cccc(-c3cnc4n3CCCC4)c2)C2=CN=NC2NC2=C1C(=O)CC(C)(C)C2 (stereo partly specified) [US20250313563, Compound 945618]",1000 to 5000 nM,> 5000 nM
"CN(C)C(=O)C1CCC2(CC1)C1=C(N=NC1)NC1=C2C(=O)CC(C)(C)C1 (stereo unspecified) [US20250313563, Compound 945395]",100 to 1000 nM,1000 to 5000 nM
"CC[C@]1(c2cccc(S(C)(=O)=O)c2)C2=C(CC(C)(C)NC2=O)NC2N=NC(C)=C21 (stereo partly specified) [US20250313563, Compound 947811]",< 100 nM,< 100 nM
"CCC1(c2cccc(C(F)(F)F)c2)C2=CN=NC2NC2=C1C(=O)N(c1ccc(F)cc1)CC2 (stereo unspecified) [US20250313563, Compound 947748]",< 100 nM,100 to 1000 nM
"CC[C@@]1(c2cccc(-c3ccncc3)c2)C2=C(CC(C)(C)CC2=O)NC2N=NC(C(F)(F)F)=C21 (stereo partly specified) [US20250313563, Compound 917292]",100 to 1000 nM,100 to 1000 nM
"CC[C@]1(c2cccc(-c3cc(C)nn3C)c2)C2=C(N=NC2)NC2=C1C(=O)C(C)(C)C2 [US20250313563, Compound 950827]",> 5000 nM,> 5000 nM
"CCC1(c2ccccc2)C2=C(N=NC2)NC2=C1C(=O)C(C)(C)CC2 (stereo unspecified) [US20250313563, Compound 835310]",100 to 1000 nM,1000 to 5000 nM
"Cc1ccc(C)c(S(=O)(=O)N2CCC3(CC2)C2=C(N=NC2)NC2=C3C(=O)CC(C)(C)C2)c1 [US20250313563, Compound 947471]",< 100 nM,100 to 1000 nM
"CC[C@@]1(c2ccc(C)cc2)C2=CN=NC2NC2=C1C(=O)CC(C)(C)C2 (stereo partly specified) [US20250313563, Compound 789458]",> 5000 nM,> 5000 nM
"C[C@@H]1CCC[C@@]2(C1)C1=C(N=NC1)NC1=C2C(=O)CC(C)(C)C1 [US20250313563, Compound 874532]",< 100 nM,< 100 nM
"CCC1(c2cccc(-c3cc(C)nn3C)c2)C2=C(CC(C)(C)CC2=O)NC2N=NC(C(F)(F)F)=C21 (stereo unspecified) [US20250313563, Compound 945532]",< 100 nM,< 100 nM and 100 to 1000 nM
"Cn1cncc1-c1cccc([C@]2(C)C3=C(CC(C)(C)CC3=O)NC3=C2C(CC(C)(C)C)N=N3)c1 (stereo partly specified) [US20250313563, Compound 126014]",100 to 1000 nM,100 to 1000 nM
"CC1(C)CC(=O)C2=C(NC3N=NC=C3C23CCOCC3)[C@H]1F (stereo partly specified) [US20250313563, Compound 883833]",100 to 1000 nM,1000 to 5000 nM
"CC[C@]1(c2cccc(-c3cc(C)nn3C)c2)C2=C(CC(C)(C)CC2=O)NC2N=NC(C(F)(F)F)=C21 (stereo partly specified) [US20250313563, Compound 947383]",1000 to 5000 nM,> 5000 nM
"CC1(C)CC(=O)C2=C(C1)NC1=C(CN=N1)C21CCN(S(=O)(=O)c2cccc(Cl)c2Cl)CC1 [US20250313563, Compound 947249]",< 100 nM,< 100 nM
